Literature values, collected in patent US20250236629A1, “MEDIUM- OR MACRO-CYCLIC BENZYL-SUBSTITUTED HETEROCYCLE DERIVATIVES AND RELATED USES” (CENTESSA PHARMACEUTICALS (UK) LIMITED, priority 2022, published 2025).
Like-named read-outs stand apart in the source and are kept apart here.

Columns and labels:
OX2R = biological target: T1, OX2R (Mus musculus, UniProt P58308); conditions: subcutaneous, cited from earlier work
T1 construct: host or cells: mice (WT, orexin-deficient and NT1 models), endogenous receptor in brain
T1 sequence (P58308 1-460): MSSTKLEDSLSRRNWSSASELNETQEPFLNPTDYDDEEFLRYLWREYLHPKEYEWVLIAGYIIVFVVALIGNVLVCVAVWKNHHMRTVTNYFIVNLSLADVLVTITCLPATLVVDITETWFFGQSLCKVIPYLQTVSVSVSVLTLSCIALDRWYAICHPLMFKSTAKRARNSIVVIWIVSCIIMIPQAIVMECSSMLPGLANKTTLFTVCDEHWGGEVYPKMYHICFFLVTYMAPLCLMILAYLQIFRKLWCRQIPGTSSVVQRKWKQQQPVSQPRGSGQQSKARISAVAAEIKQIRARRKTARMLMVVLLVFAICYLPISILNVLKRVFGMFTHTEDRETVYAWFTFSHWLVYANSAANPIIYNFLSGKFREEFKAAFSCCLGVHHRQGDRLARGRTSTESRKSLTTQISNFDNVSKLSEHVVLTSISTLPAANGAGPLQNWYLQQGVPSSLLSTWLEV

individuals with NT1 = conditions: initial clinical studies; cited from earlier work

For `COC(=O)N1CCC[C@H](NS(C)(=O)=O)[C@@H]1CO[C@H]1CC[C@@H](c2ccccc2)CC1` [TAK-925], the wakefulness (OX2R; OX2R-knockout mice) is listed as “not in OX2R-knockout mice”, the wakefulness (OX2R; WT mice) is listed as “modestly increased wakefulness” and the cataplexy (individuals with NT1) is listed as “trends for decreasing cataplexy”. For the same compound, the wakefulness (individuals with NT1) was “substantial levels of increased wakefulness”.
